Experimental data: patent US9890194B2, “Epitope and its use” (W[…] BADAŃEIT+ SP. Z O.O., priority 2012, dated 2018)

How the values were obtained:
[1] = tested on: antibodies present in umbilical blood sera 1H-9H (IgG); assay: ELISA of peptides synthesized on HPM-pins with a mixture of 9 umbilical blood sera (1H-9H); type: binding, human; details: mixture of umbilical sera 1H-9H; 29 overlapping twelve amino-acid peptides of Table 1 on HPM-pins
Source text: Peptides representing the bioinformatically predicted regions were synthesized using an NCP kit with 96 hydroxypropylmethacrylate (HPM) pins (MIMOTOPES, Clayton, Victoria, Australia) according to the manufacturer's specifications (Carter, J.M. (1994) An epitope mapping of a protein using the Geysen (PEPSCAN) procedure. Methods Mol Biol 36: 207-223). As the sixth, control, peptide we synthesised a fragment corresponding to the N-terminal region of ompC (AEVYNKDGNKLD-pin (SEQ ID NO: 12)).
After the completed synthesis, we performed initial reactivity tests for the individual peptides, using a standard ELISA test. The ELISA was performed in a mixture of 9 different umbilical blood sera (1H-9H) according to the following scheme: • a. Pin equilibration in TBS-T. • b. Blocking of free sites on the pins using 1% BSA in TBS-T • c. Incubation with umbilical sera at a dilution of 1:500 in a solution of 1% BSA in TBS-T buffer • d. Rinsing with TBS-T buffer • e. Incubation with secondary antibodies, conjugated Anti-Human IgG (Fc)-AP (Promega) • f. Rinsing with TBS-T • g. Reaction of AP with the substrate pNPP (p-Nitrophenyl Phosphate, Sigma) and absorbance measurement at 405 nm • h. Dissociation of proteins/antibodies from peptides synthesized on HPM-pins. […]

[2] = tested on: antibodies present in human umbilical blood sera; assay: Immunological activity of truncated and substituted peptides derived from RYDERY with umbilical serum; type: binding; details: FIG. 4
Source text: Unexpectedly it was shown that the immunological activity of the RYDERY peptide (SEQ ID NO: 2) is not affected by the removal of amino-acids in positions P+1 and P+2, nor in P−1, […]. The removal of amino-acids in positions P1 or P6, and in the subsequent positions (P2, P3 or P5, P4) caused a complete loss of activity. Likewise, a loss of immunological activity was caused by an exchange of residues at positions P1, P2 and P5. The latter amino-acids must remain unchanged in the final form of the peptide vaccine. Positions P3, P4 and P6 are less restrictive. In this case native amino-acids may be substituted by a series of other residues without any significant loss of immunological activity (FIG. 4). This property of the epitope facilitates the synthesis of a peptide less susceptible to enzymatic hydrolysis, and a higher antigenicity.
Furthermore, it was unexpectedly shown that an alteration of amino-acid D or E for Q yields an increased reactivity with umbilical serum (FIG. 5).

Substance	binding of antibodies in umbilical sera by loop V peptides [1]	immunological activity of peptides derived from RYDERY (removal or exchange of residues) [2]
RYDERY	shortest active portion of the epitope	–
YDERY	–	no activity
